Experimental data from the supplement of paper PMC11997997.

Assays:
[1] = tested on: Mycobacterium tuberculosis CDC1551 (intracellular, in murine BMDM); assay: area under intracellular growth-inhibition dose-response curve (AUC (% inhibition x dose, relative)); higher = more potent; conditions: duration: 6 days; dose range: 0.13-80 uM, 8 points
In short: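 The value is the area under the growth-inhibition dose–response curve, calculated in GraphPad Prism. Primary murine bone marrow-derived macrophages were seeded in 384-well opaque plates and, 24 h later, infected for 1 h with luciferase-expressing M. tuberculosis CDC1551 at multiplicity of infection 1. Cells were then exposed for 6 days to an 8-dose, 2.5-fold series (final 80–0.13 μM). Growth was read with the Bright-Glo luciferin assay and normalised to a reference drug control and to the lowest-concentration wells.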

[2] = tested on: murine bone marrow-derived macrophages; assay: area under cytotoxicity dose-response curve (AUC (% cytotoxicity x dose, relative)); higher = more cytotoxic; conditions: duration: 6 days; dose range: 0.13-80 uM, 8 points
In short: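 Values are the area under the cytotoxicity dose–response curve, calculated with GraphPad Prism version 10. Primary murine bone marrow-derived macrophages were exposed to final concentrations of 80–0.13 μM for 6 days, and viability was read by CellTiter-Glo luminescence with normalisation to vehicle and positive control wells.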

Row | Structure (SMILES) | area under intracellular growth-inhibition dose-response curve [1] | area under cytotoxicity dose-response curve [2]
1 | C[C@H]1COc2c(N3CCN(C)CC3)c(F)cc3c(=O)c(C(=O)O)cn1c23 | 200 | 137
2 | CC(=O)Nc1cccc(/C(C)=N/NC(N)=S)c1 | 235 | < 0
3 | O=C(Nc1cccc([N+](=O)[O-])c1)NC1CCCCCCC1 | 228 | 14
4 | Cn1c(NC(=S)Nc2ccccc2)nc2ccccc21 | 206 | 55.9
5 | CC1CCC(C(C)C)C(OC(=O)C[n+]2c(-c3ccc(Br)cc3)n(C)c3ccccc32)C1.[Cl-] (configuration not stated) | 192 | 82.2
6 | O=C(CSc1ccccc1)NNC(=O)c1ccncc1 | 219 | 18.7
7 | CNC[C@H](CC1CCCCC1)NC[C@H](Cc1ccccc1)NCCC12CC3CC(CC(C3)C1)C2 | 104 | 43
8 | C/C(=N\NC(N)=S)c1ccc(-n2ccnc2)cc1 | 195 | 69
9 | CCn1cc(CNC(=O)c2cc([N+](=O)[O-])c(C)c([N+](=O)[O-])c2)cn1 | 226 | 16.8
10 | Cc1nc(N/N=C\c2ccc3c(c2)OCO3)sc1C | 252 | 150
11 | O=C(C=Cc1ccccc1)N1CCCCC1 | 119 | 46.5
12 | C/C(=N\Cc1ccc2c(c1)OCO2)C1=C(O)c2ccccc2C1=O | 214 | < 0
13 | O=C(CCC1CCCCC1)NCc1ccccn1 | 222 | 3
14 | C=CCNc1nc(C(=O)OCC(=O)NCc2cccc(Cl)c2)cs1 | < 0 | 96
15 | CCOC(=O)Nc1ccc(C(=O)Oc2ccccc2)c(O)c1 | 31.9 | 63.8
16 | C[n+]1c(-c2ccccc2)c2cc(N)ccc2c2ccc(N)cc21.[Br-] | 59.8 | 30.1
17 | O=C(Sc1cccc2cccnc12)c1ccc(F)cc1 | 110 | 125
18 | CC1CCC(NC(=O)c2ccc3c(c2)OCO3)CC1 (configuration not stated) | 218 | < 0
19 | Cc1cc(C(=O)NC2CCCCCCC2)ccc1[N+](=O)[O-] | 220 | < 0
20 | CNC[C@@H](Cc1ccccc1)NC[C@@H](CC1CCCCC1)NCCCc1ccccc1 | 104 | 61.5
21 | O=C(O)c1nc(O)nc(O)c1F | 174 | < 0
